Assay results from ChEMBL document CHEMBL1153235, “Synthesis and antiproliferating activity of iron chelators of hydroxyamino-1,3,5-triazine family” (Bioorg Med Chem Lett, 2010).

Assays:
MDA-MB-231 (human) = experiment: Cytotoxicity against human MDA-MB-231 cells after 96 hrs by MTT assay; conditions: MDA-MB-231, 96 h
[1] = Cytotoxicity against human foreskin fibroblasts after 96 hrs by MTT assay; format: cell-based; conditions: Fibroblast
MIA PaCa-2 (human) = experiment: Cytotoxicity against human MIAPaCa2 cells after 96 hrs by MTT assay; conditions: MIA PaCa-2, 96 h

SMILES | IC50 (MDA-MB-231 (human)) | IC50 [1] | IC50 (MIA PaCa-2 (human))
CCCCNc1nc(NN)nc(N(C)O)n1 | 75 µM | 300 µM | 50 µM
CCCCNc1nc(N(C)O)nc(N(C)O)n1 | 4 µM | 16.5 µM | 0.8 µM
ONc1nc(NO)nc(N2CCOCC2)n1 | 250 µM | 350 µM | 40 µM
CN(O)c1nc(N2CCOCC2)nc(N2CCC=N2)n1 | 75 µM | 250 µM | 50 µM
CON(C)c1nc(N(C)O)nc(N2CCOCC2)n1 | 150 µM | 250 µM | 40 µM
CN(O)c1nc(NN)nc(N2CCOCC2)n1 | 150 µM | 400 µM | 150 µM
CN(O)c1nc(N(C)O)nc(N2CCOCC2)n1 | 9 µM | 200 µM | 1 µM
CCOC(=O)CN(C)c1nc(N(C)O)nc(N(C)O)n1 | 20 µM | 200 µM | 4 µM
O=C(O)c1ccc(-n2nc(-c3ccccc3O)nc2-c2ccccc2O)cc1 [DEFERASIROX] | 10 µM | 100 µM | 4 µM
